The test concerns the target GSK-3β (Homo sapiens, UniProt P49841). In words: GSK-3β activity, AlphaScreen technology, determination of IC50-values. The format is biochemical. The conditions noted are these: human recombinant enzyme, primed glycogen synthase substrate peptide, 10 μM ATP, 60 min at room temperature, triplicate; read-out: GSK3β (μmol). The method, then: Functional Measurements for Determination of IC50-Values
GSK-3βGSK-β activity is measured using human recombinant GSK-β and a primed (pre-phosphorylated) substrate peptide (derived from glycogen synthase and containing the phosphorylation sites 3a, b, and c) on basis of the AlphaScreen technology in 384-well plate format (small volume plate, white, GREINER). In a final volume of 11 μl, 2 μl of compound (1 nM-[…] in kinase buffer, DMSO (dimethylsulfoxide) kept constant at 0.9%), 2 μl of GSK-βsolution (0.18 nM) and 2 μl of biot. phospho-glycogen synthase peptide (34 nM) in kinase buffer (20 mM Hepes, pH 7.4, 10 mM MgCl2, […] (ethylenediaminotetraacetate), 1 mM DTT (dithiotriol), 0.1 mg/ml BSA (bovine serum albumin), 10 μM ATP (adenosinetriphosphate)) are incubated at room temperature for 60 min.
For orientation: In Alpha technology, singlet oxygen from a donor bead excites a nearby acceptor bead.

GSK-3β, sequence (P49841 whole entry): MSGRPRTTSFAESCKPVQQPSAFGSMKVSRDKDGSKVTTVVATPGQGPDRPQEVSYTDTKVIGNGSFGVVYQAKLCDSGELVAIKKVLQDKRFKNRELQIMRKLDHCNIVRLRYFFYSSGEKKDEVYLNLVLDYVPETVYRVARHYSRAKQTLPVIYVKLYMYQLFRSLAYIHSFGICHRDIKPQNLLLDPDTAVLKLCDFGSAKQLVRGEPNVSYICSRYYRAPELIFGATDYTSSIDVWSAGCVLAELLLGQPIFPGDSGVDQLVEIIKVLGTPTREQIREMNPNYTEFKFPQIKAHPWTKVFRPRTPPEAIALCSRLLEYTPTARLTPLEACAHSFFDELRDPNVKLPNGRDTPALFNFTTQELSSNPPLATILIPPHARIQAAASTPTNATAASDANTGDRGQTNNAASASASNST

`Cc1cc(-c2cc(-c3cc4ccccc4[nH]3)c(=O)[nH]n2)cc(C)c1O` [Example 6, 6-(4-Hydroxy-3,5-dimethyl-phenyl)-4-(1H-indol-2-yl)-2H-pyridazin-3-one]: the IC50 amounted to 0.59 µM.
In the case of `O=c1[nH]nc(-c2ccncc2)cc1-c1[nH]c2ccccc2c1CN1CCOCC1` [Example 11, 4-(3-Morpholin-4-ylmethyl-1H-indol-2-yl)-6-pyridin-4-yl-2H-pyridazin-3-one], the IC50 was determined as 0.102 µM.
In the case of `O=c1[nH]nc(-c2ccncc2)cc1-c1[nH]c2ccccc2c1Cl` [Example 26, 4-(3-Chloro-1H-indol-2-yl)-6-pyridin-4-yl-2H-pyridazin-3-one], the IC50 worked out at 0.025 µM.
Consider `O=c1[nH]nc(-c2ccncc2)cc1-c1cc2ccc(CN3CCN(C4CC4)CC3)cc2[nH]1` [Example 65, 4-[6-(4-Cyclopropyl-piperazin-1-ylmethyl)-1H-indol-2-yl]-6-pyridin-4-yl-2H-pyridazin-3-one], for which the IC50 is 0.004 µM.
Turning to `O=C(O)[C@@H]1CCCN1Cc1ccc2cc(-c3cc(-c4ccncc4)n[nH]c3=O)[nH]c2c1` [Example 74, (S)-1-[2-(3-Oxo-6-pyridin-4-yl-2,3-dihydro-pyridazin-4-yl)-1H-indol-6-ylmethyl]-pyrrolidine-2-carboxylic acid], the IC50 worked out at 0.01 µM.
`O=c1[nH]nc(-c2ccncc2)cc1-c1cc2ccc(CNC3CC3)cc2[nH]1` [Example 87, 4-(6-Cyclopropylaminometh-yl-1H-indol-2-yl)-6-pyridin-4-yl-2H-pyridazin-3-one]: the IC50 was 0.014 µM.
On to `CN(Cc1ccc2cc(-c3cc(-c4ccncc4)n[nH]c3=O)[nH]c2c1)C1CCN(C2CC2)CC1` [Example 89, 4-(6-{[(1-Cyclopropyl-piperidin-4-yl)-methyl-amino]-methyl}-1H-indol-2-yl)-6-pyridin-4-yl-2H-pyridazin-3-one], for which the IC50 stood at 0.012 µM.
In the case of `COc1ccc2[nH]c(-c3cc(-c4ccncc4)n[nH]c3=O)cc2n1` [Example 116, 4-(5-Methoxy-1H-pyrrolo[3,2-b]pyridin-2-yl)-6-pyridin-4-yl-2H-pyridazin-3-one], the IC50 came to 0.007 µM.
As to `O=c1[nH]nc(-c2ccncc2)cc1-c1[nH]c2ccccc2c1C1CC1` [Example 118, 4-(3-Cyclopropyl-1H-indol-2-yl)-6-pyridin-4-yl-2H-pyridazin-3-one], the IC50 was 0.011 µM.
Consider `Cn1cc(-c2cc(-c3cc4ccccc4[nH]3)c(=O)[nH]n2)cn1` [Example 126, 4-(1H-Indol-2-yl)-6-(1-methyl-1H-pyrazol-4-yl)-2H-pyridazin-3-one], for which the IC50 was 1.5 µM.
In the case of `Cn1cc(-c2c(-c3cc(-c4ccncc4)n[nH]c3=O)[nH]c3ccccc23)cn1` [Example 133, 4-[3-(1-Methyl-1H-pyrazol-4-yl)-1H-indol-2-yl]-6-pyridin-4-yl-2H-pyridazin-3-one] it was 0.007 µM; in that of `O=c1[nH]nc(-c2ccn[nH]2)cc1-c1cc2ccccc2[nH]1` [Example 147, 4-(1H-Indol-2-yl)-6-(2H-pyrazol-3-yl)-2H-pyridazin-3-one], 2 µM; in that of `CN1CCN(Cc2ccc3cc(-c4cc(-c5cccc(O)c5)n[nH]c4=O)[nH]c3c2)CC1` [Example 156, 6-(3-Hydroxy-phenyl)-4-[6-(4-methyl-piperazin-1-ylmethyl)-1H-indol-2-yl]-2H-pyridazin-3-one], 0.021 µM.
Take `CC(NC1CCN(C2CC2)CC1)c1ccc2cc(-c3cc(-c4ccncc4)n[nH]c3=O)[nH]c2c1` (stereo not shown) [Example 165, 4-{6-[1-(1-Cyclopropyl-piperidin-4-ylamino)-ethyl]-1H-indol-2-yl}-6-pyridin-4-yl-2H-pyridazin-3-one]: the IC50 came out at 0.018 µM.
Take `Cc1cc(-c2cc(-c3[nH]c4ccccc4c3-c3c[nH]c(=O)[nH]c3=O)c(=O)[nH]n2)cc(C)c1O` [Example 176, 5-{2-[6-(4-Hydroxy-3,5-dimethyl-phenyl)-3-oxo-2,3-dihydro-pyridazin-4-yl]-1H-indol-3-yl}-1H-pyrimidine-2,4-dione]: the IC50 was found to be 0.078 µM.
With `Cc1cc(-c2cc(-c3cc4ncccc4[nH]3)c(=O)[nH]n2)cc(C)c1O` [Example 180, 6-(4-Hydroxy-3,5-dimethyl-phenyl)-4-(1H-pyrrolo[3,2-b]pyridin-2-yl)-2H-pyridazin-3-one], the IC50 was found to be 0.018 µM.
